This note sets out measurements from ChEMBL document CHEMBL4152269, “New N-phenylpyrrolamide DNA gyrase B inhibitors: Optimization of efficacy and antibacterial activity” (Eur J Med Chem, 2018).

≈ marks a conversion by molar mass, not a printed value.

For experiment [1], the system named is Escherichia coli. The experiment in a line: Growth inhibition of Escherichia coli ATCC 25922 at 50 uM after 24 hrs by broth microdilution method relative to control. The format is functional. The following applies: ATCC 25922, 24 h, read-out: GI. A general note: Broth dilution looks for growth in wells or tubes with falling amounts of substance.
In the next experiment the test system is Pseudomonas aeruginosa. Put plainly: Growth inhibition of Pseudomonas aeruginosa ATCC 27853 at 50 uM after 24 hrs by broth microdilution method relative to control. The format is functional. Conditions: ATCC 27853, 24 h, read-out: GI.
The test system of experiment [2] is Staphylococcus aureus. The experiment in a line: Growth inhibition of Staphylococcus aureus ATCC 25923 at 50 uM after 24 hrs by broth microdilution method relative to control. The format is functional. The following applies: ATCC 25923, 24 h, read-out: GI.
Experiment [3] relates to Enterococcus faecalis. The experiment in a line: Growth inhibition of Enterococcus faecalis ATCC 29212 at 50 uM after 24 hrs by broth microdilution method relative to control. The format is functional. Conditions: ATCC 29212, 24 h, read-out: GI.
In experiment [4] the test system is Escherichia coli. The experiment in a line: Growth inhibition of tolC deficient Escherichia coli JW5503 at 50 uM after 24 hrs by broth microdilution method relative to control. Conditions: JW5503, 24 h, read-out: GI. The format is functional.
The subject of experiment [5] is Escherichia coli. The experiment in a line: Growth inhibition of lpxC deficient Escherichia coli JD17464 at 50 uM after 24 hrs by broth microdilution method relative to control. The format is functional. Conditions: JD17464, 24 h, read-out: GI.
The subject of experiment [6] is Staphylococcus aureus. Put plainly: Inhibition of Staphylococcus aureus topoisomerase-4 assessed as residual activity at 1 uM preincubated for 10 mins followed by ATP addition measured after 30 mins by purine nucleoside phosphorylase enzyme coupled spectrophotometric method relative to control.
Experiment [7] deals with DNA gyrase subunit B (Staphylococcus aureus, UniProt P0A0K8). The experiment in a line: Inhibition of Staphylococcus aureus DNA gyrase B preincubated for 10 mins followed by ATP addition measured after 30 mins by purine nucleoside phosphorylase enzyme coupled spectrophotometric method.
For experiment [8], the target named is DNA gyrase subunit B (Escherichia coli, UniProt P0AES6). The experiment in a line: Inhibition of Escherichia coli DNA gyrase by supercoiling assay.
For experiment [9], the system named is Enterococcus faecalis. Put plainly: Antibacterial activity against Enterococcus faecalis ATCC 29212 after 18 hrs by broth microdilution method. Conditions: ATCC 29212, 18 h. The format is functional.
A short description of experiment [10]: Inhibition of Staphylococcus aureus topoisomerase-4 assessed as residual activity preincubated for 10 mins followed by ATP addition measured after 30 mins by purine nucleoside phosphorylase enzyme coupled spectrophotometric method.
A short description of experiment [11]: Inhibition of Escherichia coli C-terminal His6-tagged topoisomerase-4 expressed in Escherichia coli BL21(DE3) preincubated for 10 mins followed by ATP addition measured after 30 mins by purine nucleoside phosphorylase enzyme coupled spectrophotometric method.
In experiment [12] the test system is Escherichia coli. The experiment in a line: Antibacterial activity against tolC deficient Escherichia coli JW5503 after 18 hrs by broth microdilution method. The format is functional. The following applies: JW5503, 18 h.

Chain of DNA gyrase subunit B (Staphylococcus aureus, UniProt P0A0K8) (P0A0K8 whole entry): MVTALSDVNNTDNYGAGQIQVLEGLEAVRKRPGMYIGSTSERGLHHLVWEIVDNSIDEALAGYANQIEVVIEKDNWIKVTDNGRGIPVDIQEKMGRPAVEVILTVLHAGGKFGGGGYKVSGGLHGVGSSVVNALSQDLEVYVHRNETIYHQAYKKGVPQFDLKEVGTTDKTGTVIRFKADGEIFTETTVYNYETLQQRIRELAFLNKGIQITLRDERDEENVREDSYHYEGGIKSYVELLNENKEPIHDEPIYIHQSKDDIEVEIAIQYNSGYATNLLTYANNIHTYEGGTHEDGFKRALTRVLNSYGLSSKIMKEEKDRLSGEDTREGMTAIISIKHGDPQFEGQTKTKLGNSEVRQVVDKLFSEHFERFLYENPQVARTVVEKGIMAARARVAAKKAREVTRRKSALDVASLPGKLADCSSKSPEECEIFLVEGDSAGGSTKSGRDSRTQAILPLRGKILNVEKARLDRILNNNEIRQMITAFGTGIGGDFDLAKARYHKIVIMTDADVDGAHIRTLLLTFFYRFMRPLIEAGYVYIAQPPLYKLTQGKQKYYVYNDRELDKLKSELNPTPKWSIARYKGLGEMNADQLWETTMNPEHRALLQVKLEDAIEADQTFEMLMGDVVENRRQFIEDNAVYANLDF

On to `COC(=O)[C@H](Cc1ccccc1)NC(=O)c1ccc(NC(=O)c2[nH]c(C)c(Cl)c2Cl)c(OC(C)C)c1`, for which the inhibition of growth at 50 µM in the experiment with Escherichia coli [1] was 13%; in the experiment with Pseudomonas aeruginosa, 6%; in the experiment with Staphylococcus aureus [2], -3%; in the experiment on Enterococcus faecalis [3], 74%; with Escherichia coli [4], -5%; with Escherichia coli [5], 25%.

For the compound `COC(=O)[C@@H](C)NC(=O)c1ccc(NC(=O)c2[nH]c(C)c(Cl)c2Cl)c(OC(C)C)c1`, the inhibition of growth at 50 µM is 12% with Escherichia coli [1]; 5% in the experiment with Pseudomonas aeruginosa; 29% in the experiment on Staphylococcus aureus [2]; -41% with Enterococcus faecalis [3]; 11% in the experiment on Escherichia coli [4]; 27% with Escherichia coli [5].

On to `Cc1[nH]c(C(=O)Nc2ccc(C(=O)N[C@@H](C)C(=O)O)cc2OCCNC(=O)OC(C)(C)C)c(Cl)c1Cl`, for which the inhibition of growth at 50 µM is 5% in the experiment with Escherichia coli [1]; 5% in the experiment with Pseudomonas aeruginosa; -11% in the experiment on Staphylococcus aureus [2]; -1% in the experiment with Enterococcus faecalis [3]; 11% with Escherichia coli [4]; 14% with Escherichia coli [5]. In addition, the Activity in the experiment on Staphylococcus aureus [6] was determined as 99%. Moreover, the IC50 (usually the midpoint of a concentration-inhibition curve) at DNA gyrase subunit B [7] was 1300 nM; against DNA gyrase subunit B [8], 590 nM.

Take `COC(=O)[C@H](C)NC(=O)c1ccc(NC(=O)c2[nH]c(C)c(Cl)c2Cl)c(OC(C)C)c1`: the inhibition of growth at 50 µM with Escherichia coli [1] was 0%; in the experiment on Pseudomonas aeruginosa it was 8%; with Staphylococcus aureus [2], -45%; in the experiment with Enterococcus faecalis [3], 57%; in the experiment with Escherichia coli [4], -12%; in the experiment on Escherichia coli [5], 6%.

`COC(=O)CNC(=O)c1ccc(NC(=O)c2[nH]c(C)c(Cl)c2Cl)cc1OC(C)C`: the inhibition of growth at 50 µM in the experiment with Escherichia coli [1] was 6%; in the experiment with Pseudomonas aeruginosa, -5%; in the experiment on Staphylococcus aureus [2] it was -5%; in the experiment on Enterococcus faecalis [3], 44%.

For the compound `CC(C)(C)OC(=O)NCCOc1cc(C(=O)NCC(=O)O)ccc1NC(=O)c1cc(Br)c(Br)[nH]1`, the inhibition of growth at 50 µM is 2% with Escherichia coli [1]; 9% in the experiment on Pseudomonas aeruginosa; 7% in the experiment with Staphylococcus aureus [2]; 1% with Enterococcus faecalis [3]; 5% in the experiment on Escherichia coli [4]; -2% in the experiment with Escherichia coli [5].

As to `Cc1[nH]c(C(=O)Nc2ccc(C(=O)N[C@H](C)C(=O)O)cc2OC(C)C)c(Cl)c1Cl`, the inhibition of growth at 50 µM was 4% in the experiment on Escherichia coli [1]; -1% in the experiment with Pseudomonas aeruginosa; 59% in the experiment on Staphylococcus aureus [2]; 101% in the experiment with Enterococcus faecalis [3]; 52% in the experiment with Escherichia coli [4]; 5% in the experiment on Escherichia coli [5]. In addition, the half-maximal inhibitory concentration (IC50) turned out to be 1600 nM against DNA gyrase subunit B [7], 41 nM at DNA gyrase subunit B [8], 1300 nM in [10] and 7400 nM in experiment [11]. In addition, the MIC90 (in general, an inhibitory concentration at the 90% level, which refers to growth in some studies and to a panel of isolates in others) against Enterococcus faecalis [9] was determined as 6.25 µM (≈ 2.76 µg/mL).

Regarding `NCCOc1cc(C(=O)NCC(=O)O)ccc1NC(=O)c1cc(Br)c(Br)[nH]1`, the inhibition of growth at 50 µM is 0% with Escherichia coli [1]; 11% in the experiment on Pseudomonas aeruginosa; -2% in the experiment with Staphylococcus aureus [2]; 0% with Enterococcus faecalis [3]; -8% in the experiment on Escherichia coli [4]; -5% in the experiment with Escherichia coli [5].

As for `COC(=O)[C@H](Cc1ccccc1)NC(=O)c1ccc(NC(=O)c2cc(Br)c(Br)[nH]2)c(OCCN)c1`, the inhibition of growth at 50 µM in the experiment with Escherichia coli [1] stood at 9%; in the experiment on Pseudomonas aeruginosa, 28%; in the experiment with Staphylococcus aureus [2], 103%; in the experiment on Enterococcus faecalis [3] it was 102%; with Escherichia coli [4], 103%; with Escherichia coli [5], 23%. Besides, the MIC90 stood at 50 µM (≈ 30.4 µg/mL) against Enterococcus faecalis [9] and 25 µM (≈ 15.2 µg/mL) with Escherichia coli [12].

Take `COC(=O)[C@@H](NC(=O)c1ccc(NC(=O)c2cc(Br)c(Br)[nH]2)c(OC(C)C)c1)C(C)C`: the inhibition of growth at 50 µM in the experiment on Escherichia coli [1] is 13%; with Pseudomonas aeruginosa it was 6%; in the experiment with Staphylococcus aureus [2] it was 33%; with Enterococcus faecalis [3], 59%; in the experiment on Escherichia coli [4] it was -9%; in the experiment with Escherichia coli [5], 22%.

For the compound `COC(=O)[C@H](C)NC(=O)c1ccc(NC(=O)c2cc(Br)c(Br)[nH]2)c(OC(C)C)c1`, the inhibition of growth at 50 µM in the experiment on Escherichia coli [1] is 5%; with Pseudomonas aeruginosa, 9%; in the experiment on Staphylococcus aureus [2], 42%; with Enterococcus faecalis [3] it was 65%; with Escherichia coli [4], 97%; with Escherichia coli [5], 11%. This compound also registered an MIC90 in the experiment on Escherichia coli [12] of 25 µM (≈ 13.3 µg/mL).

As to `CC(C)Oc1cc(C(=O)N[C@H](C(=O)O)C(C)C)ccc1NC(=O)c1cc(Br)c(Br)[nH]1`, the inhibition of growth at 50 µM was -2% in the experiment on Escherichia coli [1]; 11% in the experiment on Pseudomonas aeruginosa; -13% with Staphylococcus aureus [2]; 80% in the experiment with Enterococcus faecalis [3]; 18% in the experiment on Escherichia coli [4]; -1% with Escherichia coli [5]. The MIC90 against Enterococcus faecalis [9] was over 75 µM.

Turning to `Cc1[nH]c(C(=O)Nc2ccc(C(=O)N[C@@H](C)C(=O)NN)cc2OC(C)C)c(Cl)c1Cl`, the inhibition of growth at 50 µM is 7% in the experiment with Escherichia coli [1]; 9% in the experiment with Pseudomonas aeruginosa; 5% in the experiment on Staphylococcus aureus [2]; 99% with Enterococcus faecalis [3]; 7% with Escherichia coli [4]; 3% in the experiment on Escherichia coli [5]. In the experiment on Staphylococcus aureus [6], the Activity was 92%. The IC50 came out at 22000 nM against DNA gyrase subunit B [7] and 280 nM against DNA gyrase subunit B [8]. The compound also displayed an MIC90 against Enterococcus faecalis [9] of 6.25 µM (≈ 2.85 µg/mL).

As for `Cc1[nH]c(C(=O)Nc2ccc(C(=O)N[C@@H](C)C(=O)NN)cc2OCCNC(=O)OC(C)(C)C)c(Cl)c1Cl`, the inhibition of growth at 50 µM in the experiment on Escherichia coli [1] is 5%; in the experiment with Pseudomonas aeruginosa, 12%; in the experiment with Staphylococcus aureus [2] it was 7%; in the experiment on Enterococcus faecalis [3], 64%; in the experiment on Escherichia coli [4] it was 13%; in the experiment on Escherichia coli [5], 19%.

In the case of `Cc1[nH]c(C(=O)Nc2ccc(C(=O)N[C@@H](C)c3n[nH]c(=O)o3)cc2OCCNC(=O)OC(C)(C)C)c(Cl)c1Cl`, the inhibition of growth at 50 µM was -1% in the experiment with Escherichia coli [1]; 31% with Pseudomonas aeruginosa; 3% in the experiment with Staphylococcus aureus [2]; 86% in the experiment on Enterococcus faecalis [3]; -5% in the experiment with Escherichia coli [4]; 2% in the experiment with Escherichia coli [5]. This compound also gave an IC50 on DNA gyrase subunit B [8] of 1600 nM. For the same compound, the MIC90 in the experiment on Enterococcus faecalis [9] was 100 µM (≈ 58.3 µg/mL).

As to `Cc1[nH]c(C(=O)Nc2ccc(C(=O)N[C@@H](Cc3ccccc3)C(=O)O)cc2OC(C)C)c(Cl)c1Cl`, the inhibition of growth at 50 µM in the experiment on Escherichia coli [1] is -2%; in the experiment with Pseudomonas aeruginosa, 4%; with Staphylococcus aureus [2], -57%; in the experiment with Enterococcus faecalis [3] it was 99%; with Escherichia coli [4] it was 8%; in the experiment on Escherichia coli [5] it was 1%. Moreover, the MIC90 against Enterococcus faecalis [9] was 3.13 µM (≈ 1.62 µg/mL).

Turning to `Cc1[nH]c(C(=O)Nc2ccc(C(=O)N[C@@H](C)c3n[nH]c(=O)o3)cc2OCCN)c(Cl)c1Cl`, the inhibition of growth at 50 µM in the experiment with Escherichia coli [1] is 1%; in the experiment with Pseudomonas aeruginosa, 16%; in the experiment with Staphylococcus aureus [2], 0%; with Enterococcus faecalis [3], -6%; in the experiment on Escherichia coli [4], 88%; in the experiment with Escherichia coli [5], 13%. The IC50 was 1000 nM at DNA gyrase subunit B [7], 13 nM against DNA gyrase subunit B [8], 960 nM in [10] and 570 nM in experiment [11]. In the experiment on Escherichia coli [12], this compound yielded an MIC90 of 50 µM (≈ 24.2 µg/mL).

With `CN(C)CCOc1cc(NC(=O)c2cc(Br)c(Br)[nH]2)ccc1C(=O)NCC(=O)O`, the inhibition of growth at 50 µM in the experiment on Escherichia coli [1] turned out to be 7%; in the experiment on Pseudomonas aeruginosa, 4%; in the experiment on Staphylococcus aureus [2], 28%; in the experiment with Enterococcus faecalis [3], 14%.

Regarding `Cc1[nH]c(C(=O)Nc2ccc(C(=O)NCC(=O)O)c(OC(C)C)c2)c(Cl)c1Cl`, the inhibition of growth at 50 µM in the experiment on Escherichia coli [1] was 12%; in the experiment with Pseudomonas aeruginosa, 11%; with Staphylococcus aureus [2] it was -9%; in the experiment on Enterococcus faecalis [3], 75%. The half-maximal inhibitory concentration (IC50) at DNA gyrase subunit B [7] was 140 nM; against DNA gyrase subunit B [8] it was 91 nM; in [10], 12000 nM.

In the case of `Cc1[nH]c(C(=O)Nc2ccc(C(=O)N[C@@H](C)C(=O)O)cc2OCCN)c(Cl)c1Cl`, the inhibition of growth at 50 µM in the experiment on Escherichia coli [1] was 4%; in the experiment with Pseudomonas aeruginosa, 10%; in the experiment on Staphylococcus aureus [2] it was 17%; with Enterococcus faecalis [3] it was 36%; in the experiment on Escherichia coli [4], -4%; in the experiment on Escherichia coli [5] it was 5%. The IC50 at DNA gyrase subunit B [7] worked out at 110 nM; against DNA gyrase subunit B [8], 28 nM; in experiment [10], 3200 nM; in experiment [11], 530 nM.
